# Test results as given in ChEMBL document CHEMBL3399955, “Synthesis of a new series of dithiocarbamates with effective human carbonic anhydrase inhibitory activity and antiglaucoma action” (Bioorg Med Chem, 2015).
# Organism: Homo sapiens
# Test: Reduction in intraocular pressure in patient with open-angle glaucoma
# Type: functional, Eye
row,Compound,inhibition (INH) [%]
1,CC(=O)Nc1nnc(S(N)(=O)=O)s1 [ACETAZOLAMIDE],25

# Tested on: Oryctolagus cuniculus
# Test: Antiglaucoma activity in New Zealand albino rabbit model of glaucoma assessed as reduction in intraocular pressure dosed as 2% eye drops immediately after injection of hypertonic saline measured 2 hrs post dose
# Type: functional
row,Compound,Activity [mmHg]
1,CCN[C@H]1C[C@H](C)S(=O)(=O)c2sc(S(N)(=O)=O)cc21 [DORZOLAMIDE],3

# Molecular target: Carbonic anhydrase 9 (Homo sapiens, UniProt Q16790)
# Test: Inhibition of human recombinant carbonic anhydrase 9 expressed in Escherichia coli pre-incubated for 15 mins by stopped-flow CO2 hydration assay
row,Compound,Ki [nM]
1,NS(=O)(=O)c1ccc(CCNC(=S)S)cc1,0.91
2,OC1CCCN(C(=S)S)C1 (centres undefined),7.6
3,S=C(S)N1CCCCC1,0.92
4,CN(C)CCNC(=S)S,37.9
5,O=C(O)[C@H]1CCCN(C(=S)S)C1,86.2
6,O=C(O)[C@@H]1CCCN(C(=S)S)C1,41.3
7,O=C(O)C1CCCCN1C(=S)S (centres undefined),72
8,S=C(S)N[C@H]1CN2CCC1CC2,71.8
9,OCCCCNC(=S)S,0.97
10,OCCCCCNC(=S)S,2.6
11,O=C(O)C1CCN(C(=S)S)CC1,77.9
12,S=C(S)N[C@@H]1CN2CCC1CC2,82.4
13,CC1COCCN1C(=S)S (centres undefined),55.1
14,S=C(S)NCCc1ccccc1,25.1
15,OCCCNC(=S)S,0.91
16,O=C(CN1CCN(C(=S)S)CC1)NC1CCCCC1,79.9
17,O=C(O)C1COCCN1C(=S)S (centres undefined),6.7
18,O=C(O)C1CCCN(C(=S)S)C1 (centres undefined),67.1
19,S=C(S)NC1CN2CCC1CC2 (centres undefined),93.5
20,CC(=O)NC1CCCN(C(=S)S)C1 (centres undefined),9.5

# Organism: Homo sapiens
# Test: Reduction in intraocular pressure in glaucoma patient
# Type: functional, Eye
row,Compound,Activity [mmHg]
1,CCN[C@H]1C[C@H](C)S(=O)(=O)c2sc(S(N)(=O)=O)cc21 [DORZOLAMIDE],4

# Tested on: Oryctolagus cuniculus
# Test: Antiglaucoma activity in New Zealand albino rabbit model of glaucoma assessed as reduction in intraocular pressure dosed as 2% eye drops immediately after injection of hypertonic saline measured 1 hr post dose
# Type: functional
row,Compound,Activity [mmHg]
1,CCN[C@H]1C[C@H](C)S(=O)(=O)c2sc(S(N)(=O)=O)cc21 [DORZOLAMIDE],4
